Test results: paper PMC7503767, “Alkoxyamines Designed as Potential Drugs against Plasmodium and Schistosoma Parasites” (Molecules, 2020)
Read-outs that look alike come from different tables or passages of the source.

Assays:
[1] = test system: P. falciparum F32-TEM (artemisinin-sensitive strain); assay: Standard chemosensitivity assay (SYBR Green I), F32-TEM; assay type: cell-based, Plasmodium falciparum
Experimental: (§1) F32-ART5, an artemisinin-resistant strain and F32-TEM, an artemisinin-sensitive strain, were obtained from the parental clone F32-Tanzania, respectively under regular drug pressure cycles of increasing artemisinin concentrations for 5 years and without any artemisinin pressure. After these drug pressure cycles allowing selection of the F32-ART5 strain, regular drug pressures were performed to maintain its phenotype. […] Briefly, parasites were cultured in RPMI 1640 (Fisher Scientific, Waltham, Illkirch-Graffenstaden, France) supplemented with 5% type AB human serum (Etablissement français du Sang, Toulouse, France) and adjusted at a parasitemia of 1% and 2% hematocrit with type O human at 37 °C and 5% CO2. Parasite development was daily monitored by Giemsa staining.
(§2) Briefly, for the determination of IC50 values, the chemosensitivity assay was carried out in 96-well culture plates on D-sorbitol ring-stage synchronized parasites and antiplasmodial activities were evaluated using the SYBR Green I method. Drug testing was performed in triplicates in a dose range of 5 to 7 concentrations. […] Parasites were left to proliferate with the given compounds for 48 h at 37 °C and 5% CO2. After this period, pellets were washed 3 times in sterile PBS prior to putting the plates at −20 °C overnight to lyse all red blood cells. The following day, the plates were thawed at room temperature, 100 µL of each well was transferred into a black 96-well plate to which another 100 µL of 2× PBS-diluted SYBR Green I (Sigma-Aldrich) was added and left to incubate for 2 h at room temperature prior to reading the plates on BioTek FL× 800 Microplate Fluorescence Reader (λexcitation = 485 nm, λemission = 528 nm).
(§3) IC50 values were determined using GraphPad Prism by drawing the curve % inhibition vs. [Drug] and using a four-parameter dose–response curve with the following equation: Y=Bottom+ Top−Bottom/1+x^Hill Slope/IC50Hill Slope

Adult S. mansoni = assay: In vitro antischistosomal activity on adult worms; assay type: cell-based, Schistosoma mansoni; settings: for Mean (±SD) survival time – Adult S. mansoni / Time for the death of 100% worms: 100 µg/mL; for Mean (±SD) survival time – Adult S. mansoni: observation up to 8 h (Table S1); for Time for the death of 100% worms / S. mansoni Mean Survival Time: adult S. mansoni, observation up to 8 h; for S. mansoni Mean Survival Time: single dose 100 µg/mL
Excerpt: The NMRI strain of Schistosoma mansoni was used for the experimentations. The parasite was maintained on an albino variety of Biomphalaria glabrata from Brazil (intermediate host) and in Golden Hamsters, Mesocricetus auratus (Janvier Labs, Le Genest-Saint-Isle, France). Detailed methods, for mollusk and hamster infections and for parasite recovery, were previously described.
Adult worms were recovered between 42 and 47 days after infection by hepatic perfusion technique. Twenty to fifty adult worms were disposed in 12-well Falcon® plate containing 2 mL of RPMI 1640 (supplemented with L-glutamine and Hepes 25 mM) and stored in an incubator chamber (37 °C; 5% CO2). Drug preparation started with dissolution of the drug in DMSO to give a 100 mg/mL stock solution. The dilution was complemented with Tween 80 and RPMI in order to obtain the following final ratio dilution: RPMI 1640/Tween 80/DMSO, 1000/0.95/3.8, v/v/v. The drug solution was added to Falcon plates that contained adult worms. The S. mansoni cultures were then incubated with each drug at a final concentration of 100 µg/mL. Positive control was carried out with a solution of praziquantel (Merck KGaA, Darmstadt, Germany) at a concentration of 100 µg/mL. Negative control was carried out with the same RPMI 1640/Tween 80/DMSO solution, but without any drug. Each test was performed in duplicate. Every hour, moving worms were counted in order to define the percentage of survivors. Parasites showing no body contractions during a 30 s observation were considered as dead. Observations were extended to 8 h. Mean survival times (± standard deviation) were calculated for each drug using Kaplan–Meier survival analyses.

Vero cells = assay: Cytotoxicity assay (MTT); settings: for Selectivity Index: ratio cytotoxicity (Vero)/activity on Plasmodium; for IC50: read-out: Cytotoxicity Mean IC50, Vero cell lines, 48 h, MTT
Experimental: (§4) Vero cells were cultured in MEM (Dutscher, Brumath, France) supplemented with 10% fetal bovine serum, 1× non-essential amino acids, 100 U/mL, 100 µg/mL penicillin/streptomycin, and 2 mM L-glutamine at 37 °C in a humidified 5% CO2 atmosphere. […] At this time, each well was microscope-examined for detection of possible precipitate formation prior to remove the supernatant by flicking the plate. 100 µL of a 0.5 mg/mL PBS-dissolved MTT tetrazolium (stock solution at 5 mg/mL) was then added to each well [48]. The plates were then incubated for 1 h at 37 °C and 5% CO2 prior to removing the supernatant and adding 100 µL of DMSO. Plates were gently shaken to dissolve formazan crystals resulting from the MTT tetrazolium reduction by living cells and read at 570 nm with BioTek µQuant Microplate Spectrophotometer.

[2] = test system: P. falciparum F32-ART5 (artemisinin-resistant strain); assay: Standard chemosensitivity assay (SYBR Green I), F32-ART5; assay type: cell-based, Plasmodium falciparum; settings: ^1 n = 1, ^2 n = 2
Experimental: as §1, §2, §3

[3] = test system: P. falciparum chloroquine-resistant strain FcB1-Columbia; assay: Antiplasmodial screen at 10 µM and chemosensitivity assay (SYBR Green I), FcB1-Columbia; assay type: cell-based, Plasmodium falciparum
[4] = Homolysis of the NO–C bond measured by EPR
Experimental: Homolysis rate constants kd’ were measured by EPR and estimated using Equation (1) as reported many times in the literature. Further, Ea and kd were estimated using Equation (2). (1) ln([nitroxide]∞−[nitroxide]t/[nitroxide]∞)=−kd·t (2) Ea=−RT ln([…] kd′ )

Cytotoxicity assay (MTT) = settings: African green monkey
Experimental: as §4

[5] = read-out: P. falciparum Strains Mean IC50, F32-TEM, 48 h, ^1 n = 1, ^2 n = 2
[6] = read-out: P. falciparum Strains Mean IC50, F32-ART5, 48 h
[7] = 48 h, ^1 n = 1, ^2 n = 2, read-out: P. falciparum Strains Mean IC50, F32-TEM
[8] = FcB1-Columbia strain, read-out: IC50 on P. falciparum
[9] = 48 h, read-out: P. falciparum Strains Mean IC50, F32-ART5
[10] = Plasmodium falciparum, F32, 48 h, read-out: P. falciparum Strains Mean IC50, F32-TEM, 48 h, ^1 n = 1, ^2 n = 2
[11] = Cytotoxicity Mean IC50, Vero cell lines, 48 h, MTT
[12] = Plasmodium falciparum, F32, 48 h, read-out: P. falciparum Strains Mean IC50, F32-ART5, 48 h
[13] = Plasmodium falciparum, FCB1, read-out: IC50 on P. falciparum, FcB1-Columbia strain

Row | SMILES | Mean (±SD) survival time – Adult S. mansoni (Adult S. mansoni) [h] | Time for the death of 100% worms (Adult S. mansoni) [h] | S. mansoni Mean Survival Time (Adult S. mansoni) [h] | Selectivity Index (Vero cells) | IC50 (Vero cells) [nM] | IC50 [3, 8] [nM] | IC50 [2, 9] [nM] | IC50 [1, 10] [nM] | IC50 [2, 12] [nM] | other results
1 | CCOP(=O)(OCC)C(N(OC(C)c1cc(-c2ccccn2)nc(-c2ccccn2)c1)C(C)(C)C(=O)O)C(C)(C)C (centres unmarked) [(RR/SS)-4F, 2-((1-([2,2′:6′,2′′-Terpyridin]-4′-yl)ethoxy)(1-(diethoxyphosphoryl)-2,2-dimethylpropyl)amino)-2-methylpropanoic acid] | > 8 | > 8 | > 8 | 2 | 8100 | – | – | – | – | IC50 [1, 5]: 4600 nM; IC50 [2, 6]: 4600 nM
2 | CCOP(=O)(OCC)C(N(OC(C)c1ccc2ccc3cccnc3c2n1)C(C)(C)CO)C(C)(C)C (centres unmarked) [2J] | 1.0 ± 0.0 | 1 | 1.0 ± 0.0 | – | 17000 ± 6300 | 2500 ± 1500 | 4600 | – | – | IC50 [1, 7]: 5000 nM
3 | CCOP(=O)(OCC)C(N(OC(C)c1cc(-c2ccccn2)nc(-c2ccccn2)c1)C(C)(C)CO)C(C)(C)C (centres unmarked) [(RR/SS)-2F, Diethyl(1-((1-([2,2′:6′,2′′-terpyridin]-4′-yl)ethoxy)(1-hydroxy-2-methylpropan-2-yl)amino)-2,2-dimethylpropyl)phosphonate] | – | – | 2.5 ± 0.2 | 1 | 700 ± 300 | – | – | – | – | IC50 [1, 5]: 500 ± 100 nM; activation energy Ea ([4]; MeOH/water 1:1 pH = 7.4): 28.39 kcal/mol; re-estimated homolysis rate constant kd at 120 °C ([4]; MeOH/water 1:1 pH = 7.4): 38.9 10^−3 s^−1; half-lifetime t1/2 at 37 °C ([4]; MeOH/water 1:1 pH = 7.4 (aqueous medium)): 84 h; homolysis rate constant kd′ ([4]; MeOH/water 1:1 pH = 7.4, 81 °C): 7.1 10^−4s^−1; activation energy Ea ([4]; t-BuPh): 28.42 kcal/mol; half-lifetime t1/2 at 37 °C ([4]; t-BuPh): 84 h; re-estimated homolysis rate constant kd at 120 °C ([4]; t-BuPh): 38.4 10^−3 s^−1; homolysis rate constant kd′ ([4]; t-BuPh, 81 °C): 7.0 10^−4s^−1; IC50 ([3]; read-out: IC50 on P. falciparum, FcB1-Columbia strain): 200 nM; IC50 [2, 6]: 400 ± 100 nM
4 | CCOP(=O)(OCC)C(N(OC(C)c1ccc2ccc3cccnc3c2n1)C(C)(C)C)C(C)(C)C (centres unmarked) [1J] | 1.1 ± 0.05 | 2 | 1.1 ± 0.1 | – | 6200 ± 1200 | 3100 ± 1100 | 2300 | – | – | IC50 [1, 7]: 2900 nM
5 | CCOP(=O)(OCC)C(N(OC(C)c1cc(-c2ccccn2)nc(-c2ccccn2)c1)C(C)(C)C=O)C(C)(C)C (centres unmarked) [(RS/SR)-7F, Diethyl(1-((1-([2,2′:6′,2′′-terpyridin]-4′-yl)ethoxy)(2-methyl-1-oxopropan-2-yl)amino)-2,2-dimethylpropyl)phosphonate] | – | 3 | 2.7 ± 0.1 | 0.6 | – | – | – | 1300 | 1400 | IC50 at 48 h (Cytotoxicity assay (MTT); [11]): 900 ± 400 nM
6 | CCOP(=O)(OCC)C(N(OC(C)c1cc(-c2ccccn2)nc(-c2ccccn2)c1)C(C)(C)C=O)C(C)(C)C (centres unmarked) [(RR/SS)-7F, Diethyl(1-((1-([2,2′:6′,2′′-terpyridin]-4′-yl)ethoxy)(2-methyl-1-oxopropan-2-yl)amino)-2,2-dimethylpropyl)phosphonate] | – | 3 | 2.5 ± 0.1 | 1 | 1200 ± 1300 | – | – | – | – | IC50 [1, 5]: 940 nM; IC50 [2, 6]: 850 nM
7 | CCc1cc(-c2ccccn2)nc(-c2ccccn2)c1 [compound 22, 4′-ethyl terpyridine] | > 8 | > 8 | >8 | 22 | – | – | – | 240 | 230 | IC50 ([3]; Plasmodium falciparum, FcB1-Columbia strain, read-out: IC50 on P. falciparum): 910 ± 60 nM; IC50 at 48 h (Cytotoxicity assay (MTT); Vero cells): 5300 ± 4500 nM
8 | CC(ON1C(C)(C)CCCC1(C)C)c1ccncc1 (centres unmarked) [9a] | 3.0 ± 0.0 | 3 | 3.0 ± 0.0 | – | 40000 ± 13000 | 8000 ± 3000 | 13000 | – | – | IC50 [1, 7]: 7500 nM
9 | CCOP(=O)(OCC)C(N(OC(C)c1ccnc2c1ccc1cccnc12)C(C)(C)C)C(C)(C)C (centres unmarked) [1K] | 1.1 ± 0.04 | 2 | 1.1 ± 0.0 | – | 1100 ± 700 | 1300 ± 300 | 1600 | – | – | –
10 | CCN(CC)CCCC(C)Nc1ccnc2cc(Cl)ccc12 (centres unmarked) [Chloroquine, chloroquine, reference compound] | – | – | – | – | – | – | – | 60 ± 20 | 60 ± 30 | IC50 ([3]; Plasmodium falciparum, FCB1, read-out: IC50 on P. falciparum): 160 ± 36 nM; IC50 at 48 h (Cytotoxicity assay (MTT)): 190000 ± 56000 nM
11 | CCOP(=O)(OCC)C(N(OC(C)c1cc(-c2ccccn2)nc(-c2ccccn2)c1)C(C)(C)CO)C(C)(C)C (centres unmarked) [2F] | – | – | 2.1 to 2.5 | 1 | – | – | – | – | – | IC50 ([1]; Plasmodium falciparum, F32, read-out: IC50 on the F32 strains, F32-TEM and F32-ART5 taken together): 400 to 600 nM; IC50 [3, 13]: 200 to 300 nM
12 | CCOP(=O)(OCC)C(N(OC(C)c1cc(-c2ccccn2)nc(-c2ccccn2)c1)C(C)(C)C(=O)O)C(C)(C)C (centres unmarked) [(RS/SR)-4F, 2-((1-([2,2′:6′,2′′-Terpyridin]-4′-yl)ethoxy)(1-(diethoxyphosphoryl)-2,2-dimethylpropyl)amino)-2-methylpropanoic acid] | – | 7 | 5.2 ± 0.2 | 4 | – | – | – | 2900 | 4700 | IC50 [3, 13]: 2900 nM; IC50 at 48 h (Cytotoxicity assay (MTT); [11]): 15000 ± 5000 nM
